Results from patent US20240350643A1, “PROTEIN DEGRADATION AGENT” (SUZHOU KINTOR PHARMACEUTICALS, INC., priority 2021, published 2024).

Key:
c-Myc protein = biological target: T1, c-Myc protein (Homo sapiens, UniProt P01106); assay: Ability of compounds to degrade c-Myc protein in HL60 cells (ELISA); format: cell-based; conditions: HL-60, 1 μM compound, 24 h, read-out: HL60 cells Protein degradation rate (1 μM)
T1 construct: endogenous in cells; host or cells: HL60 cells

HL60 cells = assay: Anti-proliferation ability of compounds on HL60 cells (CTG); format: cell-based, human; conditions: Homo sapiens, HL-60, 72 h, 3 days, CellTiter-Glo, read-out: HL60 cells Proliferation inhibitory activity
Summary of the method: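 Proliferation inhibition IC50 derived from CellTiter-Glo luminescence after 3-day compound treatment of HL60 cells plated at 20000 per well, against 0.1% DMSO controls.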

T1 sequence (P01106 whole entry): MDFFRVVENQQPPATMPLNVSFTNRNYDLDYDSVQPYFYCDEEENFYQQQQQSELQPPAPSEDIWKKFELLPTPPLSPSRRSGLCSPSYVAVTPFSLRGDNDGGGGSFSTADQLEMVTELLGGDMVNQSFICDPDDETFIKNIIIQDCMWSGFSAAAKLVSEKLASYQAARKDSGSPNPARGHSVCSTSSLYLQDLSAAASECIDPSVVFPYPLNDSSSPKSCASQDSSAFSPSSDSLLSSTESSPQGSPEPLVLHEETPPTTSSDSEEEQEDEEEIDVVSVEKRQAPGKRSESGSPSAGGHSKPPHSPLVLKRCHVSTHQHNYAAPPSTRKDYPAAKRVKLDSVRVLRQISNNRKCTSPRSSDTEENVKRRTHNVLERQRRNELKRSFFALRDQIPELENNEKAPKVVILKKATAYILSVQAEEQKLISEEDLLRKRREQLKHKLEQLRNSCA

| SMILES | inhibition at 1 µM (c-Myc protein) | IC50 (HL60 cells) |
| --- | --- | --- |
| COc1cc(CNC(=O)c2ccc3c(c2)C(=O)N(C2CCC(=O)NC2=O)C3=O)ccc1CNC(=O)Cn1c2ccccc2c2cccnc21 (stereo not drawn) [A116] | 60 to 90% | 5.5 ± 3.3 nM |
| Cc1ccccc1CC(=O)NCc1ccc(CNC(=O)c2ccc3c(c2)C(=O)N(C2CCC(=O)NC2=O)C3=O)cc1 (stereo not drawn) [A68] | 60 to 90% | 1000 ± 480 nM |
| O=C1CCC(N2C(=O)c3ccc(C(=O)NCc4ccc(CN(CCn5c6ccccc6c6cccnc65)Cc5ccccc5)cc4)cc3C2=O)C(=O)N1 (stereo not drawn) [A97] | 60 to 90% | 169 ± 50.7 nM |
| O=C(CC1c2ccccc2-c2ccccc21)NCCCCCCNC(=O)c1ccc2c(c1)C(=O)N(C1CCC(=O)NC1=O)C2=O (stereo not drawn) [A11] | 10 to 30% | 1240 ± 490 nM |
| O=C(Cn1c2ccccc2c2cccnc21)NC[C@H]1CC[C@H](CNC(=O)c2ccc3c(c2)C(=O)N(C2CCC(=O)NC2=O)C3=O)CC1 (stereo partly drawn) [A24] | 30 to 60% | 103 ± 53.2 nM |
| O=C(Cc1cccc2ccc(F)cc12)NCc1ccc(CNC(=O)c2ccc3c(c2)CN(C2CCC(=O)NC2=O)C3=O)cc1 (stereo not drawn) [A155] | 60 to 90% | 3 ± 0.6 nM |
| O=C(Cc1nccc2ccccc12)NCc1ccc(CNC(=O)c2ccc3c(c2)C(=O)N(C2CCC(=O)NC2=O)C3=O)cc1 (stereo not drawn) [A33] | 60 to 90% | 9.1 ± 0.3 nM |
| O=C1CCC(N2Cc3cc(C(=O)NCc4ccc(CNc5nccc(-c6cccc7ccccc67)n5)cc4)ccc3C2=O)C(=O)N1 (stereo not drawn) [A220] | 60 to 90% | 1.2 ± 0.1 nM |
| CN(CCn1c2ccccc2c2cccnc21)Cc1ccc(CNC(=O)c2ccc3c(c2)C(=O)N(C2CCC(=O)NC2=O)C3=O)cc1F (stereo not drawn) [A110] | 60 to 90% | 4.4 nM |
| O=C(CN1CCc2cccnc21)NCc1ccc(CNC(=O)c2ccc3c(c2)CN(C2CCC(=O)NC2=O)C3=O)cc1 (stereo not drawn) [A203] | 60 to 90% | 6.6 ± 0.8 nM |
| O=C(Cc1cccc2ccccc12)NCc1ccc(CNC(=O)c2ccc3c(c2)C(=O)N(C2CCC(=O)NC2=O)C3=O)nc1 (stereo not drawn) [A124] | 10 to 30% | 1100 ± 295 nM |
| O=C(Cc1cccc2ccccc12)NCc1ccc(COCc2ccc3c(c2)C(=O)N(C2CCC(=O)NC2=O)C3=O)cc1 (stereo not drawn) [A191] | 60 to 90% | 16.9 ± 2.2 nM |
| O=C1CCC(N2C(=O)c3ccc(CNCc4ccc(C(=O)NCCn5c6ccccc6c6cccnc65)cc4)cc3C2=O)C(=O)N1 (stereo not drawn) [A180] | 60 to 90% | 133 ± 48.4 nM |
| O=C(Cc1c(F)ccc2ccccc12)NCc1ccc(CNC(=O)c2ccc3c(c2)CN(C2CCC(=O)NC2=O)C3=O)cc1 (stereo not drawn) [A154] | 60 to 90% | 1.2 ± 0.1 nM |
| O=C1CCC(N2C(=O)c3ccc(C(=O)NCc4ccc(CN(CCn5c6ccccc6c6cccnc65)c5ccccc5)cc4)cc3C2=O)C(=O)N1 (stereo not drawn) [A95] | 60 to 90% | 43.6 ± 44 nM |
| O=C(Cc1cccc(Cl)c1Cl)NCc1ccc(CNC(=O)c2ccc3c(c2)C(=O)N(C2CCC(=O)NC2=O)C3=O)cc1 (stereo not drawn) [A60] | 10 to 30% | 48.5 ± 6 nM |
| O=C(Cn1c2ccccc2c2cccnc21)NCc1ccc(CNC(=O)c2ccc3c(c2)C(=O)N(C2CCC(=O)NC2=O)C3=O)cc1F (stereo not drawn) [A108] | 60 to 90% | 2.7 ± 1.8 nM |
| O=C(Cn1c2ccccc2c2cccnc21)NCc1ccc(CNC(=O)c2ccc3c(c2)CN([C@@H]2CCC(=O)NC2=O)C3=O)cc1 [A225] | 60 to 90% | 1.3 ± 0.2 nM |
| O=C(Cc1cccc2ccccc12)NCc1ccc(C2(NC(=O)c3ccc4c(c3)C(=O)N(C3CCC(=O)NC3=O)C4=O)CC2)cc1 (stereo not drawn) [A137] | 60 to 90% | 239 ± 35 nM |
| O=C(Cn1c2ccccc2c2cccnc21)NCCCCCCCCNc1ccc2c(c1)C(=O)N(C1CCC(=O)NC1=O)C2=O (stereo not drawn) [A16] | 60 to 90% | 21.2 ± 6.1 nM |
| CN(CCn1c2ccccc2c2cccnc21)Cc1ccc(CNC(=O)c2ccc3c(c2)C(=O)N(C2CCC(=O)NC2=O)C3=O)nc1 (stereo not drawn) [A127] | 60 to 90% | 3.6 ± 0.1 nM |
| O=C1CCC(N2C(=O)c3ccc(C(=O)NCc4ccc(NC(=O)Cc5cccc6ccccc56)cc4)cc3C2=O)C(=O)N1 (stereo not drawn) [A44] | 30 to 60% | 5400 ± 683 nM |
| CC(C)(C(=O)NCc1ccc(CNC(=O)c2ccc3c(c2)C(=O)N(C2CCC(=O)NC2=O)C3=O)cc1)c1cccc2ccccc12 (stereo not drawn) [A31] | 60 to 90% | 1360 nM |
| CN(Cc1ccc(CNC(=O)c2ccc3c(c2)C(=O)N(C2CCC(=O)NC2=O)C3=O)cc1)C(=O)Cc1cccc2ccccc12 (stereo not drawn) [A71] | 60 to 90% | 24.3 ± 8.5 nM |
| O=C(Cc1cccc2ccccc12)NCc1ccc(CNCc2ccc3c(c2)C(=O)N(C2CCC(=O)NC2=O)C3=O)c(F)c1 (stereo not drawn) [A189] | 60 to 90% | 5.6 ± 1 nM |
| CN(CCc1cccc2ccccc12)Cc1ccc(CNC(=O)c2ccc3c(c2)C(=O)N(C2CCC(=O)NC2=O)C3=O)cc1 (stereo not drawn) [A83] | 30 to 60% | 27.2 ± 7.6 nM |
| CN(CCn1c2ccccc2c2cccnc21)Cc1ccc(CC(=O)Nc2ccc3c(c2)C(=O)N(C2CCC(=O)NC2=O)C3=O)cc1 (stereo not drawn) [A168] | 60 to 90% | 2.6 ± 0.7 nM |

| SMILES | inhibition at 1 µM (c-Myc protein) | IC50 (HL60 cells) |
| --- | --- | --- |
| O=C(Cc1cccc2cccnc12)NCc1ccc(CNC(=O)c2ccc3c(c2)C(=O)N(C2CCC(=O)NC2=O)C3=O)cc1 (stereo not drawn) [A34] | 60 to 90% | 18 ± 6 nM |
| O=C(Cc1ccccc1Br)NCc1ccc(CNC(=O)c2ccc3c(c2)C(=O)N(C2CCC(=O)NC2=O)C3=O)cc1 (stereo not drawn) [A65] | 60 to 90% | 473 ± 93.3 nM |
| O=C(Cc1cccc2ccccc12)NCc1ccc(CNC(=O)c2ccc3c(c2)C(=O)N(C2CCC(=O)NC2=O)C3=O)c(C(F)(F)F)c1 (stereo not drawn) [A117] | 60 to 90% | 13.8 ± 4 nM |
| O=C(Cn1c2ccccc2c2cccnc21)NCc1ccc(CNCc2ccc3c(c2)CN(C2CCC(=O)NC2=O)C3=O)cc1 (stereo not drawn) [A194] | 60 to 90% | 0.14 ± 0.01 nM |
| CC(C)N(CCc1cccc2ccccc12)Cc1ccc(CNC(=O)c2ccc3c(c2)C(=O)N(C2CCC(=O)NC2=O)C3=O)cc1 (stereo not drawn) [A85] | 60 to 90% | 21.3 ± 10.9 nM |
| O=C(Cn1c2ccccc2c2cccnc21)NCc1ncc(CNC(=O)c2ccc3c(c2)C(=O)N(C2CCC(=O)NC2=O)C3=O)cn1 (stereo not drawn) [A132] | 10 to 30% | 4210 ± 659 nM |
| O=C(Cc1c(F)ccc2ccccc12)NCc1ccc(CNCc2ccc3c(c2)CN(C2CCC(=O)NC2=O)C3=O)cc1 (stereo not drawn) [A195] | 60 to 90% | 1.4 ± 0.01 nM |
| N#CCCN(CCc1cccc2ccccc12)Cc1ccc(CNC(=O)c2ccc3c(c2)C(=O)N(C2CCC(=O)NC2=O)C3=O)cc1 (stereo not drawn) [A92] | 60 to 90% | 440 ± 120 nM |
| O=C(Cc1cccc2ccccc12)NCc1ccc(CNC(=O)c2ccc3c(c2)C(=O)N(C2CCC(=O)NC2=O)C3=O)cc1C(F)(F)F (stereo not drawn) [A121] | 60 to 90% | 6.3 ± 3 nM |
| O=C(Cc1cccc2ccccc12)NCCCCCCCCNc1ccc2c(c1)C(=O)N(C1CCC(=O)NC1=O)C2=O (stereo not drawn) [A15] | 60 to 90% | 16.3 ± 3.3 nM |
| O=C(CN1CCCc2ccccc21)NCc1ccc(CC(=O)Nc2ccc3c(c2)CN(C2CCC(=O)NC2=O)C3=O)cc1 (stereo not drawn) [A201] | 60 to 90% | 2 ± 0.9 nM |
| CC(C)(C(=O)NCc1ccc(CNC(=O)c2ccc3c(c2)C(=O)N(C2CCC(=O)NC2=O)C3=O)cc1)c1ccccc1 (stereo not drawn) [A69] | 60 to 90% | 710 ± 40.1 nM |
| O=C(Cc1cccc2ccccc12)NCc1ccc(CNC(=O)c2ccc3c(c2)C(=O)N(C2CCC(=O)NC2=O)C3=O)cn1 (stereo not drawn) [A128] | 10 to 30% | 2140 ± 788 nM |
| O=C(Cc1cccc(F)c1)NCc1ccc(CNC(=O)c2ccc3c(c2)C(=O)N(C2CCC(=O)NC2=O)C3=O)cc1 (stereo not drawn) [A64] | 60 to 90% | 2020 nM |
| O=C(Cc1cccc2ccccc12)NCc1cnc(CNC(=O)c2ccc3c(c2)C(=O)N(C2CCC(=O)NC2=O)C3=O)s1 (stereo not drawn) [A133] | 10 to 30% | 5020 ± 23 nM |
| CN(CCc1nccc2ccccc12)Cc1ccc(CNC(=O)c2ccc3c(c2)C(=O)N(C2CCC(=O)NC2=O)C3=O)cc1 (stereo not drawn) [A98] | 60 to 90% | 11.2 ± 1.3 nM |
| O=C(Cc1cccc2ccccc12)NCc1ccc(CNC(=O)c2ccc3c(c2)CN(C2CCC(=O)NC2=O)C3=O)cc1 (stereo not drawn) [A152] | 60 to 90% | 0.6 ± 0.3 nM |
| CN(CCc1cccc2ccccc12)Cc1ccc(CNC(=O)c2ccc3c(c2)C(=O)N(C2CCC(=O)NC2=O)C3=O)c(C(F)(F)F)c1 (stereo not drawn) [A119] | 60 to 90% | 44.4 ± 0.3 nM |
| CN(CCc1ccc(Cl)cc1Cl)Cc1ccc(CNCc2ccc3c(c2)C(=O)N(C2CCC(=O)NC2=O)C3=O)cc1 (stereo not drawn) [A185] | 60 to 90% | 7.5 ± 1.1 nM |
| O=C(Cn1c2ccccc2c2cccnc21)NCc1ccc(CNC(=O)c2ccc3c(c2)CN(C2CCC(=O)N(COP(=O)(O)O)C2=O)C3=O)cc1 (stereo not drawn) [A228] | 60 to 90% | 5 ± 0.2 nM |
| O=C1CCC(N2C(=O)c3ccc(C(=O)NCc4ccc(CN(CCc5cccc6ccccc56)Cc5ccccc5)cc4)cc3C2=O)C(=O)N1 (stereo not drawn) [A96] | 60 to 90% | 960 ± 121 nM |
| CN(CCc1ccc(Cl)cc1Cl)Cc1ccc(CC(=O)Nc2ccc3c(c2)C(=O)N(C2CCC(=O)NC2=O)C3=O)cc1 (stereo not drawn) [A169] | 60 to 90% | 1.9 ± 0.6 nM |
| O=C(Cn1c2ccccc2c2cccnc21)NCc1ccc(CNC(=O)c2ccc3c(c2)CN(C2CCC(=O)NC2=O)C3=O)cc1OC(F)(F)F (stereo not drawn) [A208] | 60 to 90% | 0.5 nM |
| O=C(Cn1c2ccccc2c2cccnc21)NCc1ccc(CNC(=O)c2ccc3c(c2)C(=O)N(C2CCC(=O)NC2=O)C3=O)cc1C(F)(F)F (stereo not drawn) [A122] | 60 to 90% | 5.9 ± 3.9 nM |
| O=C(Cc1cccc2ccccc12)NCCCCCCCCOc1ccc2c(c1)C(=O)N(C1CCC(=O)NC1=O)C2=O (stereo not drawn) [A17] | 30 to 60% | 3590 ± 1180 nM |
| O=C(Cc1c(F)ccc2ccccc12)NCc1ccc(CNC(=O)c2ccc3c(c2)CN(C2CCC(=O)NC2=O)C3=O)c(C(F)(F)F)c1 (stereo not drawn) [A161] | 60 to 90% | 0.9 ± 0.1 nM |
| CN(CCn1c2ccccc2c2cccnc21)Cc1ccc(C2(NC(=O)c3ccc4c(c3)C(=O)N(C3CCC(=O)NC3=O)C4=O)CC2)cc1 (stereo not drawn) [A140] | 60 to 90% | 11 ± 1.7 nM |
